Measurements: ChEMBL document CHEMBL1201862, “PubChem BioAssay data set” (2004)
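Tested at 5 concentrations; 48 h exposure; 96-well plates; endpoints linearly interpolated, else capped at highest concentration. GI50 is the concentration that inhibits growth by half.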 Activity calls are given as the source filed them. No stated cut-off is given here; in the data, active = GI50 up to about 1.1 µM and inactive = higher.

Columns and labels:
Experiment in all cases: NCI anticancer screen, dose series, 48 h
[1] = system: TK-10
[2] = system: M14
[3] = system: RPMI-8226
[4] = system: UO-31
[5] = system: HOP-92
[6] = system: OVCAR-8
[7] = system: NCI-H460
[8] = system: K562
[9] = system: NCI-H226
[10] = system: SW-620
[11] = system: OVCAR-5
[12] = system: ACHN
[13] = system: Malme-3M
[14] = system: U-251
[15] = system: KM12
[16] = system: RXF 631
[17] = system: UACC-257
[18] = system: SNB-19
[19] = system: A498
[20] = system: HL-60
[21] = system: HT-29
[22] = system: SF-268
[23] = system: HCT-15
[24] = system: CCRF-CEM
[25] = system: SF-295
[26] = system: HCT-116
[27] = system: IGROV-1
[28] = system: 786-0
[29] = system: UACC-62
[30] = system: MOLT-4
[31] = system: XF498
[32] = system: SK-MEL-5
[33] = system: KM-20L2
[34] = system: SNB-75
[35] = system: A549
[36] = system: SK-OV-3
[37] = system: OVCAR-4
[38] = system: NCI-H23
[39] = system: EKVX
[40] = system: SNB-78
[41] = system: DMS-114
[42] = system: COLO 205
[43] = system: DMS-273
[44] = system: RXF 393
[45] = system: SF-539
[46] = system: DLD-1
[47] = system: SK-MEL-28
[48] = system: OVCAR-3
[49] = system: LXFL 529
[50] = system: SN12C
[51] = system: NCI-H522
[52] = system: LOX IMVI
[53] = system: HCC 2998
[54] = system: CAKI-1
[55] = system: HOP-62
[56] = system: M19-MEL
[57] = system: SK-MEL-2

Q: Which GI50 [1] does the source give for CC(C)(CN1CCOCC1)C(=O)/C=C/c1ccc(/C=C/C(=O)C(C)(C)CN2CCOCC2)cc1 here?
A: 1.86 µM (inactive)

Q: What about the GI50 [2] of the same compound?
A: 1.69 µM (inactive)

Q: What about the GI50 [3] of the same compound?
A: 2.7 µM (inactive)

Q: And the GI50 [4]?
A: 1.75 µM (inactive)

Q: What about the GI50 [5] of the same compound?
A: 2.33 µM (inactive)

Q: What about the GI50 [6] of the same compound?
A: 1.45 µM (inactive)

Q: What about the GI50 [7] of the same compound?
A: 3.5 µM (inactive)

Q: And the GI50 [8]?
A: 0.239 µM (active)

Q: What about the GI50 [9] of the same compound?
A: 2.29 µM (inactive)

Q: And the GI50 [10]?
A: 1.01 µM (active)

Q: What about the GI50 [11] of the same compound?
A: 1.8 µM (inactive)

Q: And the GI50 [12]?
A: 1.52 µM (inactive)

Q: And the GI50 [13]?
A: 2.12 µM (inactive)

Q: What about the GI50 [14] of the same compound?
A: 1.24 µM (inactive)

Q: And the GI50 [15]?
A: 1.54 µM (inactive)

Q: What about the GI50 [16] of the same compound?
A: 1.36 µM (inactive)

Q: What about the GI50 [17] of the same compound?
A: 1.99 µM (inactive)

Q: What about the GI50 [18] of the same compound?
A: 1.55 µM (inactive)

Q: And the GI50 [19]?
A: 1.97 µM (inactive)

Q: What about the GI50 [20] of the same compound?
A: 1.45 µM (inactive)

Q: What about the GI50 [21] of the same compound?
A: 0.467 µM (active)

Q: What about the GI50 [22] of the same compound?
A: 1.59 µM (inactive)

Q: And the GI50 [23]?
A: 0.297 µM

Q: What about the GI50 [24] of the same compound?
A: 1.36 µM (inactive)

Q: And the GI50 [25]?
A: 2.21 µM (inactive)

Q: And the GI50 [26]?
A: 0.408 µM (active)

Q: What about the GI50 [27] of the same compound?
A: 2.09 µM (inactive)

Q: What about the GI50 [28] of the same compound?
A: 2 µM (inactive)

Q: And the GI50 [29]?
A: 1.56 µM (inactive)

Q: And the GI50 [30]?
A: 0.281 µM (active)

Q: And the GI50 [31]?
A: 1.42 µM (inactive)

Q: And the GI50 [32]?
A: 1.79 µM (inactive)

Q: What about the GI50 [33] of the same compound?
A: 1.36 µM (inactive)

Q: What about the GI50 [34] of the same compound?
A: 1.94 µM (inactive)

Q: And the GI50 [35]?
A: 2.89 µM (inactive)

Q: What about the GI50 [36] of the same compound?
A: 3.85 µM (inactive)

Q: What about the GI50 [37] of the same compound?
A: 0.942 µM (active)

Q: And the GI50 [38]?
A: 1.58 µM (inactive)

Q: And the GI50 [39]?
A: 1.65 µM (inactive)

Q: And the GI50 [40]?
A: 1.21 µM (inactive)

Q: What about the GI50 [41] of the same compound?
A: 0.757 µM (active)

Q: What about the GI50 [42] of the same compound?
A: 1.64 µM (inactive)

Q: And the GI50 [43]?
A: 0.457 µM (active)

Q: What about the GI50 [44] of the same compound?
A: 1.83 µM (inactive)

Q: What about the GI50 [45] of the same compound?
A: 2.07 µM (inactive)

Q: And the GI50 [46]?
A: 0.338 µM (active)

Q: And the GI50 [47]?
A: 1.77 µM (inactive)

Q: And the GI50 [48]?
A: 1.07 µM (active)

Q: What about the GI50 [49] of the same compound?
A: 1.1 µM (active)

Q: And the GI50 [50]?
A: 1.35 µM (inactive)

Q: What about the GI50 [51] of the same compound?
A: 0.278 µM (active)

Q: What about the GI50 [52] of the same compound?
A: 0.393 µM (active)

Q: And the GI50 [53]?
A: 1.83 µM (inactive)

Q: And the GI50 [54]?
A: 1.4 µM (inactive)

Q: What about the GI50 [55] of the same compound?
A: 2.46 µM (inactive)

Q: Which GI50 [1] does the source give for OC1CC1Sc1ccccc1 (stereo not given) here?
A: 59.7 µM (inactive)

Q: And the GI50 [2]?
A: 36.6 µM (inactive)

Q: And the GI50 [3]?
A: 30.5 µM (inactive)

Q: What about the GI50 [4] of the same compound?
A: 10.1 µM (inactive)

Q: What about the GI50 [5] of the same compound?
A: 29.6 µM (inactive)

Q: What about the GI50 [6] of the same compound?
A: 28.4 µM (inactive)

Q: What about the GI50 [7] of the same compound?
A: 65.2 µM (inactive)

Q: And the GI50 [8]?
A: 33.9 µM (inactive)

Q: What about the GI50 [10] of the same compound?
A: 25.8 µM (inactive)

Q: And the GI50 [11]?
A: 95.3 µM (inactive)

Q: What about the GI50 [12] of the same compound?
A: 43.5 µM (inactive)

Q: And the GI50 [13]?
A: 95.1 µM (inactive)

Q: What about the GI50 [14] of the same compound?
A: 31.6 µM (inactive)

Q: What about the GI50 [15] of the same compound?
A: 34 µM (inactive)

Q: And the GI50 [16]?
A: 39.9 µM (inactive)

Q: What about the GI50 [17] of the same compound?
A: 52.5 µM (inactive)

Q: And the GI50 [18]?
A: 33.9 µM (inactive)

Q: What about the GI50 [19] of the same compound?
A: 71.8 µM (inactive)

Q: And the GI50 [20]?
A: 14.2 µM (inactive)

Q: And the GI50 [21]?
A: 27.2 µM (inactive)

Q: And the GI50 [22]?
A: 18.6 µM (inactive)

Q: What about the GI50 [23] of the same compound?
A: 36.7 µM

Q: What about the GI50 [24] of the same compound?
A: 15.1 µM (inactive)

Q: And the GI50 [25]?
A: 24.5 µM (inactive)

Q: And the GI50 [26]?
A: 22.5 µM (inactive)

Q: And the GI50 [27]?
A: 23.7 µM (inactive)

Q: And the GI50 [28]?
A: 21 µM (inactive)

Q: What about the GI50 [29] of the same compound?
A: 33.3 µM (inactive)

Q: What about the GI50 [30] of the same compound?
A: 21.1 µM (inactive)

Q: What about the GI50 [31] of the same compound?
A: 79.8 µM (inactive)

Q: And the GI50 [32]?
A: 31.6 µM (inactive)

Q: What about the GI50 [34] of the same compound?
A: 26.7 µM (inactive)

Q: And the GI50 [35]?
A: 34.6 µM (inactive)

Q: And the GI50 [36]?
A: 80.4 µM (inactive)

Q: And the GI50 [37]?
A: 30.5 µM (inactive)

Q: What about the GI50 [38] of the same compound?
A: 35.6 µM (inactive)

Q: What about the GI50 [39] of the same compound?
A: 70.1 µM (inactive)

Q: What about the GI50 [40] of the same compound?
A: 26.9 µM (inactive)

Q: What about the GI50 [41] of the same compound?
A: 24.7 µM (inactive)

Q: What about the GI50 [42] of the same compound?
A: 40.7 µM (inactive)

Q: And the GI50 [56]?
A: 32.9 µM (inactive)

Q: What about the GI50 [43] of the same compound?
A: 33 µM (inactive)

Q: And the GI50 [44]?
A: 25.2 µM (inactive)

Q: What about the GI50 [45] of the same compound?
A: 22 µM (inactive)

Q: And the GI50 [46]?
A: 29.8 µM (inactive)

Q: And the GI50 [57]?
A: 38.1 µM (inactive)

Q: And the GI50 [47]?
A: 22.1 µM (inactive)

Q: What about the GI50 [48] of the same compound?
A: 25.4 µM (inactive)

Q: What about the GI50 [49] of the same compound?
A: 22.8 µM (inactive)

Q: And the GI50 [50]?
A: 24 µM (inactive)

Q: What about the GI50 [51] of the same compound?
A: 17.6 µM (inactive)

Q: And the GI50 [52]?
A: 28 µM (inactive)

Q: What about the GI50 [53] of the same compound?
A: 35 µM (inactive)

Q: What about the GI50 [54] of the same compound?
A: 73.3 µM (inactive)

Q: And the GI50 [55]?
A: 43 µM (inactive)
